Test results from ChEMBL document CHEMBL2424546, “Synthesis, transformation and biological evaluation of 2,3-secotriterpene acetylhydrazones and their derivatives” (Eur J Med Chem, 2013).
pEC50, pIC50: −log10 of the molar value.

Experiments:
[1] = test system: Vesicular stomatitis Indiana virus; test: Antiviral activity against vesicular stomatitis virus Indiana infected in pig PEK cells assessed as inhibition of virus replication after 48 hrs by MTT assay; format: functional, organism-based; details: for EC50: pek; for pEC50: Vesicular stomatitis Indiana virus, PEK, 48 h, read-out: EC50
[2] = test system: RD; test: Induction of apoptosis in human RD cells assessed as damaged cells at 10.9 uM after 6 hrs by annexinV-FITC/propidium iodide staining-based flow cytometry (reference value: 0.84%); format: cell-based
[3] = test system: RD; test: Induction of apoptosis in human RD cells assessed as late apoptotic/necrotic cells at 10.9 uM after 6 hrs by annexinV-FITC/propidium iodide staining-based flow cytometry (reference value: 1.20%); format: cell-based
[4] = test system: RD; test: Induction of apoptosis in human RD cells assessed as early apoptotic cells at 10.9 uM after 6 hrs by annexinV-FITC/propidium iodide staining-based flow cytometry (reference value: 1.21%); format: cell-based
[5] = Induction of apoptosis in human RD cells assessed as viable cells at 10.9 uM after 6 hrs by annexinV-FITC/propidium iodide staining-based flow cytometry (reference value: 96.85%); format: cell-based; details: read-out: Activity
[6] = test system: RD; test: Induction of apoptosis in human RD cells at 10.9 uM after 6 hrs by annexinV-FITC/propidium iodide staining-based flow cytometry relative to control; format: cell-based
[7] = Cytotoxicity against human MS cells after 72 hrs ny MTT assay; format: cell-based
[8] = test system: A549; test: Cytotoxicity against human A549 cells after 72 hrs ny MTT assay; format: cell-based; details: A549, 72 h
[9] = Cytotoxicity against human TE-32 cells after 72 hrs ny MTT assay; format: cell-based; details: RD
[10] = Therapeutic index, ratio of IC50 for pig PEK cells to EC50 for vesicular stomatitis virus Indiana infected in pig PEK cells; format: cell-based; details: read-out: Ratio IC50/EC50
[11] = Cytotoxicity against pig PEK cells after 48 hrs by MTT assay; format: cell-based, Sus scrofa
[12] = test system: RD; test: Induction of apoptosis in human RD cells assessed as damaged cells at 4.5 uM after 6 hrs by annexinV-FITC/propidium iodide staining-based flow cytometry (reference value: 0.84%); format: cell-based
[13] = test system: RD; test: Induction of apoptosis in human RD cells assessed as late apoptotic/necrotic cells at 4.5 uM after 6 hrs by annexinV-FITC/propidium iodide staining-based flow cytometry (reference value: 1.20%); format: cell-based
[14] = test system: RD; test: Induction of apoptosis in human RD cells assessed as early apoptotic cells at 4.5 uM after 6 hrs by annexinV-FITC/propidium iodide staining-based flow cytometry (reference value: 1.21%); format: cell-based
[15] = Induction of apoptosis in human RD cells assessed as viable cells at 4.5 uM after 6 hrs by annexinV-FITC/propidium iodide staining-based flow cytometry (reference value: 96.85%); format: cell-based; details: read-out: Activity

C=C(C)[C@@H]1CC[C@]2(C(=O)NC(C)C)CC[C@]3(C)[C@H](CC[C@@H]4[C@@](C)(CC#N)[C@H](C(C)(C)/C=N/NC(C)=O)CC[C@]43C)[C@@H]12
EC50 [1]: Not Active

C=C(C)[C@@H]1CC[C@]2(C(=O)OC)CC[C@]3(C)[C@H](CC[C@@H]4[C@@](C)(CC#N)[C@H](C(C)(C)[C@H]5OC(C)=NN5C(C)=O)CC[C@]43C)[C@@H]12
Activity [2]: 1.51% | Activity [3]: 2.21% | Activity [4]: 3.83% | viability at 6 h, 10.9 µM [5]: 92.5% | fold change (FC) [6]: 3 | pIC50 [7]: 5.23 | pIC50 [8]: 4.73 | pIC50 [9]: 4.96 | selectivity ratio [10]: 3 | Activity [11]: Toxic | pEC50 [1]: 6.21

C=C(C)[C@@H]1CC[C@]2(C(=O)OC)CC[C@]3(C)[C@H](CC[C@@H]4[C@@](C)(CC#N)[C@H](C(C)(C)[C@@H]5OC(C)=NN5C(C)=O)CC[C@]43C)[C@@H]12
pIC50 [7]: 3.96 | pIC50 [8]: 3.88 | pIC50 [9]: < 3.70 | selectivity ratio [10]: 5 | Activity [11]: Toxic | pEC50 [1]: 6.47

CC(=O)N1N=C(C)O[C@@H]1C(C)(C)[C@@H]1CC[C@]2(C)[C@H](CC[C@@H]3[C@H]4[C@H]5OC[C@@]4(CCC5(C)C)CC[C@]32C)[C@@]1(C)CC#N
pIC50 [7]: 4.94 | pIC50 [8]: 3.83 | pIC50 [9]: 4.09 | EC50 [1]: Not Active

CC(=O)N1N=C(C)O[C@H]1C(C)(C)[C@@H]1CC[C@]2(C)[C@H](CC[C@@H]3[C@H]4[C@H]5OC[C@@]4(CCC5(C)C)CC[C@]32C)[C@@]1(C)CC#N
pIC50 [7]: 4.39 | pIC50 [8]: 4.02 | pIC50 [9]: 4.07 | EC50 [1]: Not Active

COC(=O)[C@@]1(C)CC[C@]2(C)CC[C@]3(C)C(=CC(=O)[C@@H]4[C@@](C)(CC#N)[C@H](C(C)(C)[C@H]5OC(C)=NN5C(C)=O)CC[C@]43C)[C@@H]2C1
pIC50 [7]: 4.05 | pIC50 [8]: 3.88 | pIC50 [9]: 3.78

COC(=O)[C@@]1(C)CC[C@]2(C)CC[C@]3(C)C(=CC(=O)[C@@H]4[C@@](C)(CC#N)[C@H](C(C)(C)[C@@H]5OC(C)=NN5C(C)=O)CC[C@]43C)[C@@H]2C1
pIC50 [7]: 4.15 | pIC50 [8]: < 3.70 | pIC50 [9]: < 3.70

C=C(C)[C@@H]1CC[C@]2(C(=O)OC)CC[C@]3(C)[C@H](CC[C@@H]4[C@@](C)(CC#N)[C@H](C(C)(C)/C=N/N(C(C)=O)C(C)=O)CC[C@]43C)[C@@H]12
selectivity ratio [10]: 2 | EC50 [1]: Not Active

CC(=O)N(/N=C/C(C)(C)[C@@H]1CC[C@]2(C)[C@H](CC[C@@H]3[C@H]4[C@H]5OC[C@@]4(CCC5(C)C)CC[C@]32C)[C@@]1(C)CC#N)C(C)=O
selectivity ratio [10]: 8 | pEC50 [1]: 4.80

C=C(C)[C@@H]1CC[C@]2(C(=O)OC)CC[C@]3(C)[C@H](CC[C@@H]4[C@@](C)(CC#N)[C@H](C(C)(C)/C=N/NC(C)=O)CC[C@]43C)[C@@H]12
selectivity ratio [10]: 37 | pEC50 [1]: 5.80

CC(=O)N/N=C/C(C)(C)[C@@H]1CC[C@]2(C)[C@H](CC[C@@H]3[C@H]4[C@H]5OC[C@@]4(CCC5(C)C)CC[C@]32C)[C@@]1(C)CC#N
selectivity ratio [10]: 149 | pEC50 [1]: 6.39

COC(=O)[C@@]1(C)CC[C@]2(C)CC[C@]3(C)C(=CC(=O)[C@@H]4[C@@](C)(CC#N)[C@H](C(C)(C)/C=N/NC(C)=O)CC[C@]43C)[C@@H]2C1
selectivity ratio [10]: 2 | pEC50 [1]: 4.73

C=C(C)[C@@H]1CC[C@]2(C(=O)NCCC(=O)OCC)CC[C@]3(C)[C@H](CC[C@@H]4[C@@](C)(CC#N)[C@H](C(C)(C)/C=N/NC(C)=O)CC[C@]43C)[C@@H]12
EC50 [1]: Not Active

C=C(C)[C@@H]1CC[C@]2(C(=O)O)CC[C@]3(C)[C@H](CC[C@@H]4[C@@]5(C)CC[C@H](O)C(C)(C)[C@@H]5CC[C@]43C)[C@@H]12 [BETULINIC ACID]
pIC50 [7]: 4.80 | pIC50 [8]: 4.36 | pIC50 [9]: 4.62 | selectivity ratio [10]: 0.07 | pEC50 [1]: 3.80

CC[C@@]1(O)C(=O)OCc2c1cc1n(c2=O)Cc2cc3ccccc3nc2-1 [CAMPTOTHECIN]
Activity [12]: 0.67% | Activity [13]: 3.1% | Activity [14]: 4.08% | viability at 6 h, 4.5 µM [15]: 92.2% | pIC50 [7]: 6.64 | pIC50 [8]: 4.43 | pIC50 [9]: 5.35
